Data as given in patent US20110306606A1, “NOVEL 2,6-SUBSTITUTED-3-NITROPYRIDINE DERIVATIVE, METHOD FOR PREPARING SAME, AND PHARMACEUTICAL COMPOSITION INCLUDING SAME” (priority 2008, published 2011).
Like-named read-outs stand apart in the source and are kept apart here.

How the values were obtained:
[1] = system: formation of osteoclasts in co-culture of bone marrow cells and osteoblasts; assay: Osteoclastogenesis inhibition via co-culture system (TRAP staining); assay type: cell-based, mice; conditions: 1 μM compound, 7 days co-culture, TRAP-positive multinucleated osteoclasts vs vehicle control; for inhibition at 1 µM: Mus musculus, Osteoclast, 168 h
Description: Osteoclastogenesis inhibitory effects of the compounds of the present invention were evaluated via a co-culture system (Reference: Endocrinology 137(1996), 2187 to 2190, E. Jimi et al.). A specific experimental method is as follows.
1) Preparation of Bone Marrow Cells and Osteoblasts
Femora and tibia were aseptically dissected from 6 to 8-week-old male ddY mice to harvest bone marrow cells by a conventional method using a syringe. In brief, tissues were removed from the dissected bone, the bone ends were cut off with scissors, and the bone marrow was isolated by pushing a medium-containing syringe (23G) against the one end of the cut bone. The isolated bone marrow was subjected to repeated piston movement of a syringe such that single cells were obtained (Reference: Endocrinology 123(1988), 2600 to 2602, Takahashi et al.). After removal of red blood cells within the bone marrow, the bone marrow cells recovered by centrifugation were placed in an α-MEM supplemented with 10% fetal bovine serum (FBS), followed by counting of nucleated cells and then were immediately used for a co-culture system.
2) Osteoclastogenesis Inhibition Experiment Via Co-Culture System
As the medium used for a co-culture system, a differentiation medium with the addition of differentiation factors 1α,25-dihydroxyvitamin D3 (10^−8M) and dexamethasone (10^−8M) to a-MEM supplemented with 10% FBS was used for the induction of osteoclastogenesis. First, the compounds dissolved in dimethyl sulfoxide (DMSO) at a concentration of 1 mM were diluted to 2 μM using the above-mentioned differentiation medium. As a vehicle control group, 0.2% (v/v) DMSO was added to the medium. 100 μL/well of each medium was added to 96-well plates. In addition, the above prepared bone marrow cells and osteoblasts were plated onto 96-well plates at a density of 1×10^5 cells/50 μL/well and 3×10^3 cells/50 μL/well, respectively. The total volume/well was 200 μL and the final compound concentration was 1 μM. The control group was 0.1% DMSO. The cells were cultured with exchange of the culture media with fresh media containing differentiation factors and test materials at an interval of 2 to 3 days.
7 days after culturing of cells, the formation of multinucleated osteoclasts was confirmed by microscopic examination, the medium was removed from the wells and then the cells were fixed in a 10% phosphate-buffered formalin solution. The degree of formation of mature osteoclasts was measured taking advantage of the characteristics of osteoclasts showing a positive reaction to a tartrate-resistant acid phosphatase (TRAP) staining solution. The TRAP staining solution was prepared in a manner such that naphthol AS-MS phosphate as a substrate and a coloring agent (Fast Red Violet LB salt) were dissolved in N,N-dimethylformamide, and a 0.1N NaHCO3 buffer solution containing 50 mM of tartaric acid was added thereto. Among the TRAP-positive cells under a light microscope, multinucleated osteoclasts having 6 to 7 nuclei were regarded as mature osteoclasts.
The degree of inhibition of osteoclastogenesis was calculated according to the following equation 1. The results are summarized in Table 27 below (Experiments were carried out for 4 wells/experimental group (n=4), and the results are given in terms of mean±standard deviation)
Inhibition of osteoclastogenesis(%)=(1−numbers of osteoclasts observed in experimental group/numbers of osteoclasts observed in vehicle control group)×100(%) [Equation 1]

[2] = system: Osteoblasts (Calvarial cells); conditions: ICR, mouse, 72 h, 1 μM
[3] = system: Osteoblasts (Calvarial cells); assay: Cytotoxicity test (MTT); conditions: 1 μM compound, 72 hours, in comparison with vehicle control
[4] = system: Osteoblasts (Calvarial cells); assay: Alkaline phosphatase (ALP) activity in osteoblasts (Calvarial cells); assay type: cell-based, mice; conditions: 1 μM compound, 3 days
Description: Differentiation and activity of osteoblasts were indirectly evaluated by measuring an ALP activity having a close relationship with osteogenesis.
Osteoblasts (Calvarial cells) prepared in Experimental Example 1 and MC3T3-E1 cells (available from RIKEN Cell Bank, Japan) were collected in α-MEM supplemented with 10% FBS, followed by cell counting. The cells were dispensed into 24-well cultureware at a density of 2×10^4 cells/well. After culturing of the cells for 24 hours, the culture media were discarded and replaced with fresh media in which test compounds were diluted to a concentration of 1 μM (1 mL/well). In addition, the vehicle control group containing 0.1% DMSO was also treated. […] When the experiment was terminated, the supernatant was removed and the cells were washed three times with cold phosphate buffer at 4°. 0.2% Triton X-100 was added to the washed cells which were then subjected to three cycles of freezing at −70° and thawing at room temperature for the complete lysis of cells. The cell extracts were pooled and centrifuged to collect the cell supernatant which was used for the measurement of ALP activity and proteins. The protein concentration was measured using a BCA assay kit (manufactured by Sigma-Aldrich). For the measurement of ALP activity, p-nitrophenylphosphate was added to the cell supernatant which was then incubated at 37° for 30 minutes, and the reaction was terminated with the addition of 50 μL of 0.2N sodium hydroxide. The standard curve was plotted at the absorbance of 405 nm using p-nitrophenol as a standard material and then the absorbance of test materials thus reacted was measured to determine the production amount of p-nitrophenol.
The ALP activity was calculated by dividing the amount of p-nitrophenol produced from each test material by the protein amount and the reaction time. Therefore, the unit of ALP activity was given in terms of p-nitrophenol/μg protein/min. The results are given in Tables 28-1 and 28-2 where the ALP activity unit of each test material was given in terms of % change through the comparison between the individual test materials and the vehicle control group.

Structure (SMILES) | inhibition at 1 µM [1] [%] | Cell viability (%) Calvarial cell [2] [%] | Cell viability (%) Calvarial cell [3] [%] | ALP activity (1 μM, % of Control) Calvarial cell [4] | Osteoclastogenesis inhibition (%) 1 μM [1] [%]
CCCCc1ccc(Nc2nc(NCCCn3ccnc3)ccc2[N+](=O)[O-])cc1 [Compound 56, 2-[4-(n-butyl)phenylamino]-6-[(3-imidazol-1-yl)propylamino]-3-nitropyridine] | 99 | 104 | – | – | –
Nc1ccc(Nc2nc(N3CCOCC3)ccc2[N+](=O)[O-])cc1 [Compound 64, 2-[4-(amino)phenylamino]-6-morpholino-3-nitropyridine] | 65 | 102 | – | – | –
Nc1ccc(Nc2nc(NCc3ccncc3)ccc2[N+](=O)[O-])cc1 [Compound 66, 2-[4-(amino)phenylamino]-6-[(4-pyridyl)methylamino]-3-nitropyridine] | 65 | 107 | – | – | –
CC(C)c1nccn1-c1ccc([N+](=O)[O-])c(Nc2ccc(-n3ccnc3)cc2)n1 [Compound 92, 2-[4-(imidazol-1-yl)phenylamino]-6-[(2-isopropyl)imidazol-1-yl]-3-nitropyridine] | 64 | 101 | – | – | –
O=[N+]([O-])c1ccc(NCc2cccnc2)nc1Nc1ccc(-n2ccnc2)cc1 [Compound 93, 2-[4-(imidazol-1-yl)phenylamino]-6-[(3-pyridyl)methylamino]-3-nitropyridine] | 66 | 98 | – | – | –
Cc1nc(-c2ccc(Nc3nc(NCC(C)C)ccc3[N+](=O)[O-])cc2)cs1 [Compound 134, 2-[4-(2-methylthiazol-4-yl)phenylamino]-6-(isobutylamino)-3-nitropyridine] | 61 | 93 | – | – | –
CCN(CCO)c1ccc([N+](=O)[O-])c(Nc2ccc(-c3csc(C)n3)cc2)n1 [Compound 141, 2-[4-(2-methylthiazol-4-yl)phenylamino]-6-[(N-ethyl-2-hydroxy)ethylamino]-3-nitropyridine] | – | – | 102 | 129 % of Control | 82
Cc1nc(-c2ccc(Nc3nc(N4CCNCC4)ccc3[N+](=O)[O-])cc2)cs1 [Compound 143, 2-[4-(2-methylthiazol-4-yl)phenylamino]-6-(piperazin-1-yl)-3-nitropyridine] | 99 | 85 | – | – | –
Cc1nc(-c2ccc(Nc3nc(N4CCC(N)CC4)ccc3[N+](=O)[O-])cc2)cs1 [Compound 144, 2-[4-(2-methylthiazol-4-yl)phenylamino]-6-(4-aminopiperidino)-3-nitropyridine] | 100 | 35 | – | – | –
CNc1ccc([N+](=O)[O-])c(Nc2ccc(-c3csc(C4CCCCC4)n3)cc2)n1 [Compound 151, 2-[4-(2-cyclohexylthiazol-4-yl)phenylamino]-6-(methylamino)-3-nitropyridine] | 70 | 101 | – | – | –
CC(C)Nc1ccc([N+](=O)[O-])c(Nc2ccc(-c3csc(C4CCCCC4)n3)cc2)n1 [Compound 152, 2-[4-(2-cyclohexylthiazol-4-yl)phenylamino]-6-(isopropylamino)-3-nitropyridine] | 85 | 105 | – | – | –
CC(C)CNc1ccc([N+](=O)[O-])c(Nc2ccc(-c3csc(C4CCCCC4)n3)cc2)n1 [Compound 153, 2-[4-(2-cyclohexylthiazol-4-yl)phenylamino]-6-(isobutylamino)-3-nitropyridine] | 78 | 107 | – | – | –
CC(C)(C)Nc1ccc([N+](=O)[O-])c(Nc2ccc(-c3csc(C4CCCCC4)n3)cc2)n1 [Compound 154, 2-[4-(2-cyclohexylthiazol-4-yl)phenylamino]-6-(t-butylamino)-3-nitropyridine] | 78 | 116 | – | – | –
O=[N+]([O-])c1ccc(NCc2ccncc2)nc1Nc1ccc(-c2csc(C3CCCCC3)n2)cc1 [Compound 163, 2-[4-(2-cyclohexylthiazol-4-yl)phenylamino]-6-[(4-pyridyl)methylamino]-3-nitropyridine] | 67 | 99 | – | – | –
CC(C)CNc1ccc([N+](=O)[O-])c(Nc2ccc(N3CCOCC3)c(F)c2)n1 [Compound 193, 2-[(3-fluoro-4-morpholino)phenylamino]-6-(isobutylamino)-3-nitropyridine] | – | – | 98 | 114 % of Control | 81
CC(C)(C)Nc1ccc([N+](=O)[O-])c(Nc2ccc(N3CCOCC3)c(F)c2)n1 [Compound 199, 2-[(3-fluoro-4-morpholino)phenylamino]-6-(t-butylamino)-3-nitropyridine] | – | – | 118 | 118 % of Control | 67
O=[N+]([O-])c1ccc(N2CCNCC2)nc1Nc1ccc(N2CCOCC2)c(F)c1 [Compound 201, 2-[(3-fluoro-4-morpholino)phenylamino]-6-(piperazin-1-yl)-3-nitropyridine] | – | – | 95 | 118 % of Control | 86
O=[N+]([O-])c1ccc(N2CCNCC2)nc1Nc1ccc(N2CCSCC2)c(F)c1 [Compound 213, 2-[(3-fluoro-4-thiomorpholino)phenylamino]-6-(piperazin-1-yl)-3-nitropyridine] | – | – | 95 | 121 % of Control | 94
CNc1ccc([N+](=O)[O-])c(Nc2ccc(N3CCNCC3)c(F)c2)n1 [Compound 215, 2-[(3-fluoro-4-piperazino)phenylamino]-6-(methylamino)-3-nitropyridine] | – | – | 104 | 125 % of Control | 91
CC(C)Nc1ccc([N+](=O)[O-])c(Nc2ccc(N3CCNCC3)c(F)c2)n1 [Compound 216, 2-[(3-fluoro-4-piperazino)phenylamino]-6-(isopropylamino)-3-nitropyridine] | – | – | 92 | 112 % of Control | 93
